Measured values reported in patent publication US7692011B2, “8-hydroxy and 8-mercapto quinazolinones” (Prana Biotechnology Limited, priority 2002, dated 2010).

Experiment: Assay 13 Blood brain barrier penetration (rat brain perfusion)
Assay type: in vivo
Conditions: 50 μM infusion, 1.5 minutes
Protocol: Assay 13. Blood Brain Barrier Penetration
The test compounds were dissolved in DMSO and phosphate buffered saline (PBS) was added to obtain solutions at a concentration of 50 μM in PBS containing 1.25-2.5% DMSO. A trace amount of ^14C-sucrose was added to each stock infusion solution (approx 0.01 μCi/mL) to act as Blood-Brain Barrier (BBB)-impermeable marker in order to assess the integrity of the BBB during each perfusion and to estimate the volume of the residual vascular space (RVS) in samples of brain tissue (ie: the volume of fluid remaining inside the lumen of blood vessels at the end of each perfusion). […]
After 1.5 minutes, the infusion pump automatically stopped, the cannula was withdrawn from the carotid artery and a sample of the infusion solution (1-1.5 mL) was then collected from the tip of the infusion cannula. […] The brain tissue samples from each animal were frozen at −30° C., homogenized and weighed aliquots analysed by LC-MS to give total brain concentration. […]
Small aliquots from each brain tissue sample and the corresponding infusion solution were analysed by liquid scintillation counting to determine the level of ^14C-sucrose. The residual vascular space (RVS) in each brain tissue sample was calculated by dividing the measured concentration of sucrose in brain tissue (dpm/mg) by its concentration in the corresponding infusion solution (dpm/μL). […]

For `O=c1c2c(Cl)cc(Cl)c(O)c2ncn1C1CC1` [PBT-1061, 5,7-Dichloro-3-cyclopropyl-8-hydroxy-3H-quinazolin-4-one], the “Assay 13 Rat brain perfusion (brain uptake ratio)” value was >50%.
